According to PubChem BioAssay AID256 (DTP/NCI, 2004):
Values joined by “and” are separate entries in the source; they are usually repeats but may differ in a detail not shown here. Identical values can stand only once. Toxic doses and inconclusive results are not listed. How the source made its calls: active means survival T/C of 150% or more; inactive means T/C below 125% in these data.

Test system: CD2F1 mice, L1210 leukemia ip, survival T/C
Assay: NCI In Vivo Anticancer Drug Screen. Data for tumor model L1210 Leukemia (intraperitoneal) in CD2F1 (CDF1) mice
Conditions: endpoint: mean survival time, higher = longer survival
In short: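 Each value reflects a quotient of treated over vehicle control outcomes in mice with a transplanted tumor.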

[1] = dose: 100.0 mg/kg/injection, schedule: Q01DX009 (ip), vehicle: saline with Tween-80
[2] = dose: 200.0 mg/kg/injection, schedule: Q01DX009 (ip), vehicle: saline with Tween-80
[3] = dose: 200.0 mg/kg/injection, schedule: Q04DX003 (ip), vehicle: saline with Tween-80
[4] = dose: 400.0 mg/kg/injection, schedule: Q01DX009 (ip), vehicle: saline with Tween-80
[5] = dose: 400.0 mg/kg/injection, schedule: Q04DX003 (ip), vehicle: saline with Tween-80
[6] = dose: 25.0 mg/kg/injection, schedule: Q01DX001 (ip), vehicle: saline
[7] = dose: 100.0 mg/kg/injection, schedule: Q01DX001 (ip), vehicle: saline with Tween-80
[8] = dose: 100.0 mg/kg/injection, schedule: Q01DX001 (ip), vehicle: saline
[9] = dose: 100.0 mg/kg/injection, schedule: Q04DX003 (ip), vehicle: saline with Tween-80
[10] = dose: 200.0 mg/kg/injection, schedule: Q01DX001 (ip), vehicle: saline
[11] = dose: 400.0 mg/kg/injection, schedule: Q01DX001 (ip), vehicle: saline
[12] = dose: 50.0 mg/kg/injection, schedule: Q01DX009 (ip), vehicle: saline with Tween-80
[13] = dose: 25.0 mg/kg/injection, schedule: Q01DX001 (ip), vehicle: saline with Tween-80
[14] = dose: 50.0 mg/kg/injection, schedule: Q01DX001 (ip), vehicle: saline with Tween-80
[15] = dose: 12.5 mg/kg/injection, schedule: Q01DX005 (ip), vehicle: distilled water + Tween-80
[16] = dose: 25.0 mg/kg/injection, schedule: Q01DX005 (ip), vehicle: distilled water + Tween-80
[17] = dose: 50.0 mg/kg/injection, schedule: Q01DX005 (ip), vehicle: distilled water + Tween-80
[18] = dose: 100.0 mg/kg/injection, schedule: Q01DX005 (ip), vehicle: distilled water + Tween-80
[19] = dose: 200.0 mg/kg/injection, schedule: Q01DX005 (ip), vehicle: distilled water + Tween-80
[20] = dose: 100.0 mg/kg/injection, schedule: Q04DX003 (ip), vehicle: saline

Measured: T/C

NC(N)=N/N=C/c1ccc(Cl)cc1Cl
inactive: dose: 8.0 mg/kg/injection, schedule: Q01DX Z (ip), vehicle: saline 88 % of control | dose: 16.0 mg/kg/injection, schedule: Q01DX Z (ip), vehicle: saline 96 % of control | dose: 31.0 mg/kg/injection, schedule: Q01DX Z (ip), vehicle: saline 92 % of control | dose: 62.0 mg/kg/injection, schedule: Q01DX Z (ip), vehicle: saline 95 % of control

CC(=O)C1C(=O)OC2(C)C(=O)C3=COC(/C=C\C(C)=C/C(C)C)=CC3=CC12 (centres undefined)
inactive: [1] 100 % of control | [2] 104 % of control | [3] 91 % of control | [4] 111 % of control | [5] 88 % of control

Oc1ccccc1/C=N/c1nc(-c2ccccc2)cs1.Oc1ccccc1/C=N/c1nc(-c2ccccc2)cs1.[Zn]
inactive: [6] 103 % of control | dose: 50.0 mg/kg/injection, schedule: Q01DX001 (ip), vehicle: saline 100 % of control | [7] 104 % of control | [8] 91 % of control

COc1ccc(C=Nc2ccc(C)cc2)cc1
inactive: [1] 108 % of control | [9] 103 % of control | [2] 98 % of control | [3] 115 % of control | [4] 104 % of control | [5] 116 % of control

Cc1nc2[nH]c(=O)n(O)c(=O)c2s1
inactive: dose: 75.0 mg/kg/injection, schedule: Q01DX001 (ip), vehicle: other 102 % of control | dose: 150.0 mg/kg/injection, schedule: Q01DX001 (ip), vehicle: other 100 % of control | dose: 300.0 mg/kg/injection, schedule: Q01DX001 (ip), vehicle: other 86 % of control

N=C1N(c2ccc(C(=O)NC(CCC(=O)O)C(=O)O)cc2)CC2CNc3nc(N)[nH]c(=O)c3N12 (centres undefined)
inactive: [8] 100 % of control | [10] 93 % of control | [11] 104 % of control

CC1(C)C(C#N)C(=O)N(Cc2ccccc2)C(=O)C1C#N (centres undefined)
inactive: [12] 98 % of control | [1] 107 % of control | [2] 98 % of control

COC1OC(COC(c2ccccc2)(c2ccccc2)c2ccccc2)C(O)C(O)C1O (centres undefined)
inactive: [8] 100 % of control | [1] 106 % of control | [10] 97 % of control | [2] 96 % of control | [11] 92 % of control | [4] 98 % of control

CCCCCCCCCCCCCCCC[N+]1(C)CCSCC1
inactive: dose: 0.78 mg/kg/injection, schedule: Q01DX009 (ip), vehicle: saline 93 % of control and 103 % of control | dose: 1.56 mg/kg/injection, schedule: Q04DX003 (ip), vehicle: saline 106 % of control | dose: 3.13 mg/kg/injection, schedule: Q01DX001 (ip), vehicle: saline 104 % of control | dose: 3.13 mg/kg/injection, schedule: Q04DX003 (ip), vehicle: saline 110 % of control | dose: 6.25 mg/kg/injection, schedule: Q01DX001 (ip), vehicle: saline 104 % of control | dose: 6.25 mg/kg/injection, schedule: Q04DX003 (ip), vehicle: saline 104 % of control | dose: 12.5 mg/kg/injection, schedule: Q01DX001 (ip), vehicle: saline with Tween-80 97 % of control | dose: 12.5 mg/kg/injection, schedule: Q01DX001 (ip), vehicle: saline 104 % of control | dose: 12.5 mg/kg/injection, schedule: Q04DX003 (ip), vehicle: saline 102 % of control | [13] 95 % of control | [6] 104 % of control | dose: 25.0 mg/kg/injection, schedule: Q01DX009 (ip), vehicle: saline 87 % of control | dose: 25.0 mg/kg/injection, schedule: Q04DX002 (ip), vehicle: saline 88 % of control | [14] 100 % of control

[N-]=[N+]=CC(=O)c1c(Cl)n(-c2ccccc2)c2ccccc12
inactive: dose: 50.0 mg/kg/injection, schedule: Q04DX003 (ip), vehicle: saline with Tween-80 90 % of control | [9] 98 % of control | [3] 101 % of control

O=[N+]([O-])c1ccc(Cc2ncnc3c2ncn3C2OC(CO)C(O)C2O)cc1 (centres undefined)
inactive: [15] 103 % of control | [16] 105 % of control | [17] 108 % of control | [18] 120 % of control | [19] 120 % of control

C1=CC2C3C=CC(C3)C2C1 (centres undefined)
inactive: [12] 94 % of control | [1] 93 % of control | [2] 98 % of control

Nc1nc(SCC(=O)c2ccccc2)c2[nH]cnc2n1
inactive: dose: 100.0 mg/kg/injection, schedule: Q04DX003 (ip), vehicle: saline sonified 113 % of control | dose: 176.0 mg/kg/injection, schedule: Q04DX003 (ip), vehicle: saline with Tween-80 113 % of control | dose: 200.0 mg/kg/injection, schedule: Q04DX003 (ip), vehicle: saline sonified 107 % of control

C[Si](OCc1ccc(-c2ccccc2)cc1)c1ccccc1
inactive: dose: 100.0 mg/kg/injection, schedule: Q01DX009 (ip), vehicle: saline 99 % of control | [20] 96 % of control | dose: 200.0 mg/kg/injection, schedule: Q01DX009 (ip), vehicle: saline 100 % of control | dose: 200.0 mg/kg/injection, schedule: Q04DX003 (ip), vehicle: saline 93 % of control | dose: 400.0 mg/kg/injection, schedule: Q01DX009 (ip), vehicle: saline 94 % of control | dose: 400.0 mg/kg/injection, schedule: Q04DX003 (ip), vehicle: saline 98 % of control

C=CC1CC[N-]CC1.C=CC1CC[N-]CC1.C=CC1CC[N-]CC1.[Cl][Cr]([Cl])[Cl]
inactive: [20] 102 % of control

CCOC(=O)NC(C#N)=C(Cl)Cl
inactive: dose: 100.0 mg/kg/injection, schedule: Q04DX002 (ip), vehicle: saline with Tween-80 114 % of control | dose: 200.0 mg/kg/injection, schedule: Q04DX002 (ip), vehicle: saline with Tween-80 88 % of control | dose: 400.0 mg/kg/injection, schedule: Q04DX002 (ip), vehicle: saline with Tween-80 100 % of control

Cc1ccc([N+](=O)[O-])cc1NC(=O)NNC(=O)CNC(=O)Nc1cccc([N+](=O)[O-])c1
inactive: [1] 88 % of control | [2] 86 % of control | [4] 104 % of control

S=c1[nH]nc2n1NC(c1ccccc1)=NN2
inactive: [1] 104 % of control | [9] 91 % of control | [2] 112 % of control | [3] 96 % of control | [4] 106 % of control | [5] 101 % of control

CC(C)(C)/C(=N\Nc1ccc([N+](=O)[O-])cc1[N+](=O)[O-])c1ccccc1
inactive: [13] 97 % of control | [14] 95 % of control | [7] 97 % of control

Cc1ccc(N=Nc2ccc(N(C)C)cc2)c2cccnc12
inactive: [1] 104 % of control

CCCCCCCCC(Sc1nn(C2OC(COC(=O)c3ccccc3)C(OC(=O)c3ccccc3)C2OC(=O)c2ccccc2)c(=O)[nH]c1=O)C(=O)OCC (centres undefined)
inactive: [15] 101 % of control | [16] 100 % of control | [17] 100 % of control | [18] 97 % of control | [19] 97 % of control

O=c1[nH]c(=O)n(C2CC(O)C(CO)O2)cc1C1SCCS1 (centres undefined)
inactive: dose: 3.8 mg/kg/injection, schedule: Q01DX005 (ip), vehicle: water 102 % of control | dose: 7.5 mg/kg/injection, schedule: Q01DX005 (ip), vehicle: water 98 % of control | dose: 15.0 mg/kg/injection, schedule: Q01DX005 (ip), vehicle: water 95 % of control | dose: 30.0 mg/kg/injection, schedule: Q01DX005 (ip), vehicle: water 87 % of control | dose: 60.0 mg/kg/injection, schedule: Q01DX005 (ip), vehicle: water 106 % of control

CCO/C=C/C(=O)NC(=O)NC1CC(CO)CC1O (centres undefined)
inactive: [12] 97 % of control | [1] 97 % of control | [2] 105 % of control

O=C1NC(=O)C(c2ccccc2)(C2CCC2)N1 (centres undefined)
inactive: [9] 95 % of control | [5] 88 % of control

CC(=O)Nc1ccc(-c2c(N)ncc3ccccc23)cc1
inactive: dose: 50.0 mg/kg/injection, schedule: Q04DX003 (ip), vehicle: other 94 % of control | dose: 100.0 mg/kg/injection, schedule: Q04DX003 (ip), vehicle: other 94 % of control | dose: 200.0 mg/kg/injection, schedule: Q04DX003 (ip), vehicle: other 96 % of control | dose: 400.0 mg/kg/injection, schedule: Q04DX003 (ip), vehicle: other 100 % of control
